Read-outs that look alike come from different tables or passages of the source.
What was measured:
[1] = test system: Normal human peripheral blood mononuclear cells (PBMC); assay: Cell viability, trypan blue exclusion, normal PBMC; type: cell-based; settings: 72 hours incubation
Text: (§1) Following cancer cell lines were used: chronic myeloid leukemia cell lines K562, KU812; acute myeloid leukemia cell lines HL60, U937; T-lymphoblastic leukemia cell line Molt-4; prostate cancer cell line PC-3; breast cancer cell line MCF-7; pancreatic cancer cell line MIA PaCa-2. These cancer cell lines were maintained in tissue culture in standard growth medium containing 10% heat-inactivated fetal bovine serum (FBS). Normal human peripheral blood mononuclear cells (PBMC) were separated from whole blood by Ficoll/Hypaque density gradient centrifugation. Peripheral blood samples were collected from normal donors with due approval from the Human Ethics Committee of Indian Institute of Chemical Biology, Kolkata, India, and all experiments with human blood were conducted under an approved institutional Human Ethics committee protocol. Informed consent was provided according to the Declaration of Helsinki. Cancer cell lines and PBMC (5×10^3) in triplicate were incubated in 0.2 mL of standard growth medium containing 10% FBS with varying concentrations of test compounds of the present invention. After 72 hours of incubation, cells were collected by centrifugation (at 1000 g for 5 minutes) and cell-viability was determined by the trypan blue exclusion assay. At least 200 cells were examined in each sample. Because of monolayer culture, treated and untreated PC-3, MCF-7 and MIA PaCa-2 cells were detached from the wells by treatment with Cell Dissociation Solution (Sigma Chemical, St. Louis, Mo.) before counting. Data are represented as IC50 (minimum concentration required to inhibit the viability by 50%) in Table 5.

[2] = test system: chronic myeloid leukemia cell line K562; assay: Cell viability, trypan blue exclusion, K562; type: cell-based; settings: Homo sapiens
Text: as §1

[3] = test system: chronic myeloid leukemia cell line KU812; assay: Cell viability, trypan blue exclusion, KU812; type: cell-based; settings: Homo sapiens, 72 hours incubation
Text: as §1

[4] = test system: acute myeloid leukemia cell line HL60; assay: Cell viability, trypan blue exclusion, HL-60; type: cell-based; settings: Homo sapiens
Text: as §1

[5] = test system: acute myeloid leukemia cell line U937; assay: Cell viability, trypan blue exclusion, U937; type: cell-based; settings: Homo sapiens, U-937, 72 hours incubation
Text: as §1

[6] = test system: T-lymphoblastic leukemia cell line Molt-4; assay: Cell viability, trypan blue exclusion, Molt-4; type: cell-based, human
Text: as §1

[7] = test system: prostate cancer cell line PC-3; assay: Cell viability, trypan blue exclusion, PC-3; type: cell-based, human; settings: 72 hours incubation
Text: as §1

[8] = test system: breast cancer cell line MCF-7; assay: Cell viability, trypan blue exclusion, MCF-7; type: cell-based, human
Text: as §1

[9] = test system: pancreatic cancer cell line MIA PaCa-2; assay: Cell viability, trypan blue exclusion, MIA PaCa-2; type: cell-based, human; settings: read-out: Activity (IC50) MIAPaCa-2
Text: as §1

[10] = Sensitivity to spontaneous autooxidation (H2O2 level, TMB reagent); type: physicochemical; settings: 30 µM, 30 min and 2 hr in medium alone, with and without Catalase; H2O2 in supernatant
Experimental: Spontaneous autooxidation of compounds having phenolic groups produce reactive oxygen species like H2O2. The enzyme Catalase breaks down H2O2 to water, We therefore incubated Compound 1 and 7 (30 µM each) for 30 min and 2 hr in medium alone in the presence and absence of Catalase. Level of H2O2 in the supernatant was then measured as reported using 3,5,3′,5′-tetramethylbenzidine (TMB) reagent (Plant Physiology, 2004, 136, 3114-3123). FIG. 1 represents the data of sensitivity of spontaneous autooxidation of Compound 1 and Compound 7.

[11] = test system: U937 cells; assay: Morphology and apoptosis/necrosis in U937 cells (Giemsa; annexin V-FITC/PI flow cytometry); type: cell-based, human; settings: Compound No.1 30 μM, Compound No.7 15 μM, 24 hours, annexin V-FITC/PI
Experimental: U937 cells were treated with standard growth medium alone or with standard growth medium containing hydroxychavicol (30 μM) for 24 hours. Treated and untreated cells were stained with Giemsa and viewed under microscope (magnification ×1000). For measurement of apoptosis/necrosis, cells were left untreated or treated with Compound No. 1 (30 μM) or Compound No.7 (15 μM) for 24 hours. After washing, cells were stained with fluorescein isothiocyanate (FITC)-conjugated annexin V and propidium iodide (PI) and analysed in a flow cytometer (BD LSR, Becton Dickinson).
FIG. 2B indicates flow cytometric determination of apoptosis and necrosis by Compound No.1 (hydroxychavicol) and Compound No.7. Apoptosis and necrosis of U937 cells were induced. Cells were left untreated (extreme left panel), or incubated with Compound No.1 (30 μM) (middle panel) or Compound No.7 (extreme right panel) (15 μM) for 24 hours and processed for flow cytometry after staining with annexin V-FITC and propidium iodide (PI). Viable cells are in the lower left quadrant (stained neither by annexin V nor by PI), early apoptotic cells (stained by annexin V only) are in the lower right quadrant, late-stage apoptotic cells (stained by both annexin V and PI) are in the upper right quadrant and the necrotic cells (stained by PI only) are in the upper left quadrant.

[12] = test system: normal human PBMC; assay: Apoptosis/necrosis of normal human PBMC by flow cytometry; type: cell-based; settings: 30 μM, 24 hours
Experimental: FIG. 2C indicates flow cytometric determination of apoptosis and necrosis of normal human PBMC by Compound 1 (30 μM) and Compound 7 (30 μM) after incubation for 24 hours.

[13] = test system: Ehrlich ascites carcinoma (EAC); assay: Ehrlich ascites carcinoma (EAC) model in vivo; settings: 30 mg/kg body weight intraperitoneally thrice a week for three weeks, Swiss albino mice
Text: The in vitro studies indicate that hydroxychavicol and other compounds of the present invention induce killing of a variety of cancer cell lines including breast cancer cell line MCF-7 (Table 5). The MCF-7 cell line is of epithelial origin. Studies were extended in vivo in mouse model for a tumor of epithelial origin. Ehrlich ascites carcinoma is a tumor of epithelial origin (Cancer Research, 1958, 18, 1167-1185). EAC was established in Swiss albino mice as described (Biochemical and Biophysical Research Communications, 2001, 288, 658-665). Swiss albino mice were injected with EAC (2×10^6 cells/mouse) intraperitoneally. 2 days post-injection of tumor cells, these mice (5 per group) were injected intraperitoneally with Compound No. 1 (hydroxychavicol) (30 mg/kg body weight) or Compound No. 7 (30 mg/kg body weight) thrice a week for three weeks. One week after the last injection, mice were sacrificed, and viable cells from peritoneal cavity were counted microscopically. Vehicle (dimethyl sulphoxide [DMSO], 0.1%) was used as control.

[14] = K562, 72 hours incubation, trypan blue exclusion, read-out: Activity (IC50) K562
[15] = 72 hours incubation, trypan blue exclusion, read-out: Activity (IC50) HL-60
[16] = read-out: IC50 against chronic myeloid leukemia cancer cell lines (K562), range over both cell lines K562, KU812 and KU812 and over the listed compounds, read-out: IC50 against chronic myeloid leukemia cancer cell lines (K562, KU812)
[17] = range over both cell lines HL60 and U937 and over the listed compounds, read-out: IC50 against acute myeloid leukemia cancer cell line (HL60, U937)
[18] = Homo sapiens, MOLT-4, 72 h, 72 hours incubation
[19] = Homo sapiens, MCF7, 72 h, 72 hours incubation
[20] = Homo sapiens, MIA PaCa-2, 72 h, 72 hours incubation

Compound | IC50 [1] [µM] | IC50 [2, 14] [µM] | IC50 [3] [µM] | IC50 [4, 15] [µM] | IC50 [5] [µM] | IC50 [2, 16] [µM] | IC50 [4, 17] [µM] | IC50 ([6]; 72 hours incubation) [µM] | IC50 [6, 18] [µM] | IC50 ([7]; Homo sapiens, 72 h) [µM] | IC50 ([8]; 72 hours incubation) [µM] | IC50 [8, 19] [µM] | IC50 [9, 20] [µM] | IC50 [7] [µM] | other results
C=CC(C)(C)c1ccc2c(c1)OCO2 [Compound 14, 5-(2-methylbut-3-en-2-yl)benzo[d][1,3]dioxole] | 800 | 657 | 650 | 670 | 670 |  |  |  |  |  |  |  |  |  | IC50 ([6]; Homo sapiens, MOLT-4, 72 hours incubation): 650 µM; IC50 ([7]; Homo sapiens): 670 µM; IC50 ([8]; Homo sapiens, MCF7, 72 hours incubation): 680 µM; IC50 ([9]; Homo sapiens, MIA PaCa-2, 72 hours incubation): 680 µM
C=CCc1cc(O)c(O)cc1CC=C [Compound 2, 4,5-diallylbenzene-1,2-diol] |  | 13 | 25 | 25 |  | 13 to 52 | 13 to 60 | 30 | 15 to 50 | 25 to 70 | 40 | 25 to 70 | 30 to 70 |  | 
C=CCc1ccc(O)c(O)c1CC=C [Compound 3, 3,4-diallylbenzene-1,2-diol] | 80 | 52 |  | 60 |  | 13 to 52 | 13 to 60 | 50 |  | 25 to 70 | 70 |  |  |  | IC50 ([9]; 72 hours incubation): 70 µM
C=CCc1cccc(OC(C)=O)c1OC(C)=O [Compound 19, 3-allyl-1,2-phenylene diacetate] | 30 | 13 | 20 | 15 | 15 |  |  |  | 20 | 20 |  | 20 | 20 |  | 
CC(C)(C#N)c1ccc(O)c(O)c1 [Compound 10, 2-(3,4-dihydroxyphenyl)-2-methylpropanenitrile] | 150 | 113 | 115 | 110 | 110 |  |  |  |  | 120 |  | 100 | 120 |  | 
C=CCc1cccc(O)c1O [Compound 16, 3-allyl-benzene-1,2-diol] | 30 | 20 | 25 | 20 | 25 | 13 to 52 | 13 to 60 | 20 | 15 to 50 | 25 to 70 |  | 25 to 70 | 30 to 70 | 30 | 
CC(=O)ON=CC(C)(C)c1ccc(OC(C)=O)c(OC(C)=O)c1 [Compound 12, 4-(1-(acetoxyimino)-2-methylpropan-2-yl)-1,2-phenylene diacetate] | 250 | 194 | 190 | 190 | 190 |  |  |  | 190 | 200 |  | 200 |  |  | 
C=CCc1ccc(OC(C)=O)c(OC(C)=O)c1 [Compound 7, 4-allyl-1,2-phenylene diacetate] | 70 | 13 | 15 | 15 | 13 | 13 to 52 | 13 to 60 | 15 | 15 to 50 | 25 to 70 | 25 | 25 to 70 | 30 to 70 | 25 | IC50 ([9]; 72 hours incubation): 30 µM; Sensitivity to spontaneous autooxidation [10]: resistant to spontaneous autooxidation; Apoptosis and necrosis of U937 cells by flow cytometry [11]: induce apoptosis and necrosis; Apoptosis and necrosis of normal human PBMC by flow cytometry [12]: remained unaffected; In vivo efficacy against EAC tumor (viable cells from peritoneal cavity) [13]: effective in vivo in destroying EAC tumor
CC(C)(C=NO)c1ccc(O)c(O)c1 [Compound 9, 2-(3,4-dihydroxyphenyl)-2-methylpropanal oxime] | 100 | 64 | 70 | 64 |  |  |  |  | 70 | 80 |  | 85 | 85 |  | 
CCOC(=O)/C=C/C(C)(C)c1ccc(O)c(O)c1 [Compound 13, (E)-ethyl 4-(3,4-dihydroxyphenyl)-4-methylpent-2-enoate] | 75 | 50 | 45 | 50 | 45 | 13 to 52 | 13 to 60 | 45 |  |  | 70 |  | 30 to 70 | 70 | 

Source: US9290473B2, “Inhibitors of phosphatidylinositol-3-kinase (PI3) and inducers of nitric oxide (NO)” (COUCIL OF SCIENTIFIC & INDUSTRIAL RESEARCH, priority 2009, dated 2016)
